Assay results as given in patent US6867210B2, “Aryl substituted pyrimidines” (Euro-Celtique S.A., priority 2000, dated 2005).
Like-named read-outs stand apart in the source and are kept apart here.

Key:
[1] = tested on: Chung model of neuropathic pain (tactile allodynia); experiment: Chung model of neuropathic pain, tactile antiallodynia effect; assay type: in vivo; conditions: rats, p.o.
From the text: The compounds may be tested for their potential for the treatment of chronic pain (antiallodynic and antihyperalgesic activities) in the Chung model of peripheral neuropathy. Male Sprague-Dawley rats weighing between 200-225 g were anesthetized with halothane (1-3% in a mixture of 70% air and 30% oxygen) and their body temperature controlled during anesthesia through use of a homeothermic blanket. A 2-cm dorsal midline incision was then made at the L5 and L6 level and the para-vertibral muscle groups retracted bilaterally. L5 and L6 spinal nerves were then be exposed, isolated, and tightly ligated with 6-0 silk suture. A sham operation was performed exposing the contralateral L5 and L6 spinal nerves as a negative control.
Tactile Allodynia: Rats were transferred to an elevated testing cage with a wire mesh floor and allowed to acclimate for five to ten minutes. A series of Semmes-Weinstein monofilaments were applied to the plantar surface of the hindpaw to determine the animal's withdrawal threshold. […] This procedure was repeated with subsequent lesser filaments until there was no response and the lightest filament that elicited a response was recorded. […] For each animal, three measurements were made at every time point to produce an average withdrawal threshold determination. Tests were performed prior to and at 1, 2, 4 and 24 hours post drug administration. Tactile allodynia and mechanical hyperalgesia tests were conducted concurrently.
The tactile antiallodynia effect of the compounds listed in Table 4 was tested in the Chung model of neuropathic pain in rats as described above and described by Kim and Chung (Pain 50:355-363 (1992)). […]

[2] = tested on: maximal electroshock-induced seizures (MES); experiment: Maximum electroshock seizure test (MES), anticonvulsant evaluation; assay type: in vivo; conditions: Mus musculus, mice
From the text: The compounds of the present invention may be tested for in vivo anticonvulsant activity after i.v., p.o. or i.p. injection using a number of anticonvulsant tests in mice, including the maximum electroshock seizure test (MES). Maximum electroshock seizures were induced in male NSA mice weighing between 15-20 g and male Sprague-Dawley rats weighing between 200-225 g by application of current (50 mA, 60 pulses/sec, 0.8 msec pulse width, 1 sec duration, D.C., mice; 99 mA, 125 pulses/sec, 0.8 msec pulse width, 2 sec duration, D.C., rats) using a Ugo Basile ECT device (Model 7801). Mice were restrained by gripping the loose skin on their dorsal surface and saline-coated corneal electrodes were held lightly against the two corneae. Rats were allowed free movement on the bench top and ear-clip electrodes were used. […] A tonic seizure was defined as a hindlimb extension in excess of 90 degrees from the plane of the body. Results were treated in a quantal manner.
The ability of 4-[4-(4-fluorophenoxy)phenyl]-pyrimidine-2-carboxamide to block maximal electroshock-induced seizures (MES) was determined according to the method above.
4-[4-(4-Fluorophenoxy)phenyl]-pyrimidine-2-carboxamide was administered p.o. to mice 30 minutes before the test procedure.
The following compounds on Table 1 were tested accordingly after a p.o. administration and also after an i.v. injection. The compounds were injected i.v. 15 minutes before the test procedure.

[3] = target: rBIIA isoform of Na+ channels (Rattus norvegicus, UniProt P04775); experiment: Electrophysiological Assay 1: patch-clamp of voltage-sensitive Na+ currents in HEK-293 cells; assay type: cell-based; conditions: HEK-293 cells stably expressing rBIIA; for Ki: apparent antagonist dissociation constant for inactivated sodium channels
Experimental: Cell preparation: HEK-293 (NaIIA-B2) cell line stably expressing the rBIIA isoform of Na^+ channels was established in-house. The cells were cultured using standard techniques, as described previously (Verdoom, T. A, et al., Neuron 4:919-928 (1990)). For electrophysiology, cells were plated onto poly-D-lysine pre-coated Cellware 35 mm Petri dishes (BIOCOAT, Becton Dickinson) at a density of ˜10^4 cells/dish on the day of re-seeding from confluent cultures. Our experience has been that cells are suitable for recordings for 2-3 days after plating.
Patch-clamp recordings of voltage-sensitive Na^+ currents: Whole-cell voltage-clamp recordings were made using conventional patch-clamp techniques (Hamill et al., Pfluegers Arch. 391:85-100 (1981)) with an Axopatch 200A amplifier (Axon Instruments, Foster City, Calif.). The recording chamber was continuously superfused with the external solution (150 mM NaCl, 5.4 mM KCl, 1.8 mM CaCl2, 1 mM MgCl2, 10 mM HEPES, 10 mM glucose, pH 7.4 adjusted with NaOH, osmolality ˜320 mmol/kg) at a speed of about 1 mL/min. Recording pipettes were pulled from the thick-walled capillaries (WPI, Sarasota, Fla.) and fire-polished. The pipette resistances ranged from 1 to 3 MΩ when the pipettes were filled with internal solution containing (in mM): 130 CsF, 20 NaCl, 2 MgCl2, 10 EGTA, 10 HEPES, pH adjusted to 7.4 with CsOH, osmolality ˜310 mmol/kg. Drugs and intervening wash-outs were applied through a linear array of flow pipes (Drummond Microcaps, 2 μL, 64-mm length). Compounds are dissolved in dimethylsulfoxide (DMSO) to make a 30 mM stock solution, which was subsequently diluted into the external solution to give final concentrations of 0.1-100 μM. At the highest (1%) concentration, DMSO inhibited the size of Na^+ current only slightly. Currents were recorded at room temperature (22-25° C.), filtered at 3 kHz with an active 8-pole Bessel filter (Frequency Devices, Haverhill, Mass.), digitized at 10-50 μs intervals, and stored using Digidata 1200 analog/digital interface with Pclamp6/Clampex software (Axon Instruments). Series resistance was cancelled typically by ˜75% when necessary.
The following voltage pulse protocols A, B, C, and D were used to assess the potency and kinetics of inhibition of the Na^+ channels by the compounds (FIGS. 1A-1D).
Current-voltage relationship (IV-curve), protocol A (FIG. 1A), was used to report the voltage at which the maximal inward Na^+ current is achieved. This voltage was used throughout the experiment as testing voltage, Vt. The steady-state inactivation (or, availability) curve, protocol C (FIG. 1C), was used to get the voltage at which almost complete (≧95%) inactivation of Na^+ channels occurs; it served as voltage for conditioning prepulse, Vc, throughout the experiment. Protocol B (FIG. 1B) reports how fast the channels recover from inactivation at hyperpolarized voltages. This permitted us to set up the duration of the hyperpolarization gap which is used in measurement of the kinetics of binding of compounds to inactivated Na^+ channels (protocol D (FIG. 1D)). Channel repriming under control conditions was fast (≧90% recovery during first 5-10 ms). If a drug substantially retards the repriming process then it becomes possible (protocol D) to accurately measure the kinetics of binding of the inhibitor to inactivated channels as well as the steady-state affinity (k+ and Ki). To estimate k+ values the reduction in peak currents in successive trials with varying pre-pulse duration was plotted as a function of pre-pulse duration and the time constant (τ) measured by mono-exponential fit. A plot of 1/τ as a function of antagonist concentration then allowed calculating of the macroscopic binding rates of the antagonists. […]

[4] = iv, i.v. injection 15 minutes before the test, read-out: MES i.v. ED50
[5] = po, p.o., 30 minutes before the test, ED50 = dose protecting 50% of animals, read-out: MES p.o. ED50

SMILES | MED (minimal effective dose) [1] [Mg/kg] | ED50 [2, 4] [mg/kg] | ED50 [2, 5] [mg/kg] | Ki [3] [nM] | inhibition of voltage-gated sodium currents [3] | melting point [°C]
NC(=O)c1ccnc(-c2ccc(Oc3ccc(Cl)cc3F)cc2)n1 [2-[4-(4-Chloro-2-fluorophenoxy)phenyl]pyrimidine-4-carboxamide] | 1.25 | 2.3 | 5.7 | 220 |  | 
NC(=O)c1ccnc(-c2ccc(Oc3ccc(F)cc3)cc2)n1 [2-[4-(4-Fluorophenoxy)phenyl]pyrimidine-4-carboxamide] | 2.50 | 2.5 | 7.5 | 100 |  | 
Fc1ccc(Oc2ccc(-c3nccc(-c4nc[nH]n4)n3)cc2)cc1 [2-[4-(4-fluorophenoxy)phenyl]-4-[3-(1,2,4-triazolyl)]pyrimidine] |  |  |  | 20000 |  | 
NC(=O)c1nc(-c2ccc(Oc3ccccc3)cc2)c(N)nc1N [3,5-Diamino-6-(4-phenoxyphenyl)pyrazine-2-carboxamide] |  |  |  | 2200 |  | 
NC(=O)c1nccc(-c2ccc(Oc3ccc(F)cc3F)cc2)n1 [4-[4-(2,4-Difluorophenoxy)phenyl]-pyrimidine-2-carboxamide] |  | 0.9 | 1.4 | 360 |  | 
NC(=O)c1nccc(-c2ccc(Oc3ccc(F)cc3)cc2)n1 [4-[4-(4-Fluorophenoxy)phenyl]-pyrimidine-2-carboxamide] |  | 0.7 | 1.6 | 490 | dose-dependent inhibition | 
CN(C)C(=O)c1nccc(-c2ccc(Oc3ccc(F)cc3)cc2)n1 [4-[4-(4-Fluorophenoxy)phenyl]-pyrimidine-2-carboxylic acid dimethylamide] |  |  |  | 13500 |  | 
CC(C)(C)NC(=O)c1nccc(-c2ccc(Oc3ccc(F)cc3)cc2)n1 [4-[4-(4-Fluorophenoxy)phenyl]-pyrimidine-2-carboxylic acid tert-butylamide] |  |  |  | 180 |  | 
O=C(O)c1nccc(-c2ccc(Oc3ccc(F)cc3)cc2)n1 [4-[4-(4-Fluorophenoxy)phenyl]-pyrimidine-2-carboxylic acid] |  |  |  | 51000 |  | 
NC(=O)c1nccc(-c2ccc(Oc3ccc(C(F)(F)F)cc3)cc2)n1 [4-[4-(4-Trifluoromethylphenoxy)phenyl]-pyrimidine-2-carboxamide] |  | 0.5 | 2.5 | 210 |  | 
NC(=O)c1cccc(-c2ccc(Oc3ccccc3)cc2)n1 [6-(4-Phenoxyphenyl)pyridine-2-carboxamide] |  | 3.2 | 10.5 |  |  | 178 to 180
NC(=O)c1cccc(-c2ccc(Oc3ccc(F)cc3)cc2)n1 [6-[4-(4-Fluorophenoxy)phenyl]pyridine-2-carboxamide] | 2.50 | 1.2 | 3.3 | 70 |  | 
